How the values were obtained:
T. cruzi = test system: T. cruzi; set-up: method as in per drug in column Reference of Table 2; settings: class of literature evidence of trypanocidal activity; ref per drug in Table 2; cited from earlier work; further: key: ? indicates unknown activity; + indicates indirect evidence of activity; ++ indicates direct evidence of activity
[1] = test system: T. cruzi blood trypomastigote (INC-5 strain); test: ex vivo evaluation against blood trypomastigotes, INC-5 strain; format: cell-based; settings: Trypanosoma cruzi; ex vivo, INC-5 strain, 24 h at 4 °C; read-out: T.cruzi blood trypomastigote IC50 INC-5
Text: (§1) The high-priority hit drugs were subjected to experimental validation in vitro, ex vivo, and in vivo, together with a cytotoxicity assay. Ninoa and INC-5 strains of T. cruzi were used in this study. The Ninoa strain was obtained in 1986 by xenodiagnoses from an acute case of Chagas’ disease in Oaxaca, Mexico, whereas the INC-5 strain was obtained in 1997 from a chronic case of Chagas’ disease in a person in Guanajuato, Mexico.
(§2) Ex vivo evaluation of different FDA-approved drugs against Trypanosoma cruzi blood trypomastigotes. The ex vivo evaluation of the trypanocidal activity of the FDA-approved drugs was carried out according to the methodology described above. Blood from parasite infected animals was obtained from intracardiac puncture and diluted with phosphate-buffered saline (PBS), pH 7.2, until a concentration of 2 × 10^6 blood trypomastigotes/mL was obtained. From this, 195 µL of blood/well was placed in a 96-well plate and incubated at 4 °C for 24 h with 5 µL of each drug tested at different concentrations (5 µg/mL to […]). […] After incubation, live parasites were counted in a Neubauer chamber and the IC50 was calculated. Three independent experiments by triplicate were performed.

[2] = test system: T. cruzi epimastigote (INC-5 strain); test: in vitro evaluation against epimastigotes, INC-5 strain (resazurin); format: cell-based; settings: Trypanosoma cruzi, 48 h at 28 °C
Text: (§3) The high-priority hit drugs were subjected to experimental validation in vitro, ex vivo, and in vivo, together with a cytotoxicity assay. Ninoa and INC-5 strains of T. cruzi were used in this study. […] In vitro evaluation of different FDA-approved drugs against Trypanosoma cruzi epimastigotes. The epimastigote stage of Ninoa and INC5 strains of T. cruzi were used to evaluated the in vitro trypanocidal activity of different FDA-approved drugs. Both strains were maintained in liver infusion tryptose (LIT) medium, supplemented with 10% fetal bovine serum (FBS) and 0.1% penicillin–streptomycin. They were preserved by transferring 1 × 10^6 parasites/mL into a new culture medium every week. […] All compounds were initially prepared at 10 mg/mL, using dimethyl sulfoxide (DMSO) as diluent. Serial dilutions were performed using complemented LIT medium until concentrations of 100 to 0.46 µg/mL of each drug were obtained. […] After the incubation period, 20 µL of 2.5 mM resazurin solution were added to each well and incubated for 3 h. All assays were carried out in triplicate.

[3] = test system: T. cruzi blood trypomastigote (Ninoa strain); test: ex vivo evaluation against blood trypomastigotes, Ninoa strain; format: cell-based; settings: Trypanosoma cruzi, 24 h at 4 °C
Text: as §1, §2

[4] = test system: T. cruzi epimastigote (Ninoa strain); test: in vitro evaluation against epimastigotes, Ninoa strain (resazurin); format: cell-based; settings: Trypanosoma cruzi, 48 h at 28 °C
Text: as §3

T. cruzi INC-5 strain = test: in vivo short-term trypanocidal activity (parasitemia) in infected CD1 mice, INC-5 strain; set-up: species or system Trypanosoma cruzi in CD1 mice; settings: for Parasitemia inhibition percentage over the time, 2 horas INC-5 / Parasitemia inhibition percentage over the time, 4 horas INC-5 / Parasitemia inhibition percentage over the time, 6 horas INC-5: 100 mg/kg oral; for parasitemia inhibition: mice infected with INC-5 strain, single oral dose 100 mg/kg, eight hours after administration
Protocol: (§4) Parasitemia was monitored at 2, 4, 6, and 8 h after administration (see Figure 2).
(§5) CD1 strain mice, 6–8 weeks old, were used to maintain Ninoa and INC-5 strains of T. cruzi. Animals were given by the University of Science and Arts of Chiapas. To maintain the strains, animals were intraperitoneally inoculated every 14 days with 1 × 10^5 blood trypomastigote, obtained from parasite-infected mice. Parasitemia was monitored every three days by the Pizzi method. For this, 5 µL of blood from the caudal vein of infected mice were deposited on a slide and evenly distributed with an 18 × 18 mm coverslip. Parasite counting was performed by observing 15 microscopic fields using a 40 × objective lens. For the in vivo short term evaluation of the trypanocidal activity of the FDA-approved drugs, six groups of six CD1 mice each with homogeneous weight and parasitemia were used.
(§6) In vivo short-term evaluation of the trypanocidal activity of the FDA-approved drugs. Six groups of six CD1 female mice were infected with blood trypomastigotes of Ninoa and INC-5 strains following the methodology previously described in Romanha et al. and in Díaz-Chiguer et al.. At day 13 post-infection, when the infected mice reached an average of 5 × 10^6 parasites/mL, a single dose of the FDA-approved drugs at 100 mg/kg body weight was orally administered. Parasitemia was monitored following the Pizzi method at 2, 4, 6, and 8 h post-treatment […] using mineral oil as a vehicle. […] Mice examination was performed as stated in the Norma Official Mexicana (NOM-062-Z00-1999), published on August 2009.

T. cruzi Ninoa strain = test: in vivo short-term trypanocidal activity (parasitemia) in infected CD1 mice, Ninoa strain; set-up: species or system Trypanosoma cruzi in CD1 mice; settings: for Parasitemia inhibition percentage over the time, 2 horas Ninoa / Parasitemia inhibition percentage over the time, 4 horas Ninoa / Parasitemia inhibition percentage over the time, 6 horas Ninoa: 100 mg/kg oral; for parasitemia inhibition: mice infected with Ninoa strain, single oral dose 100 mg/kg, eight hours after administration
Protocol: as §4, §5, §6

T. cruzi epimastigotes = test system: T. cruzi epimastigotes; set-up: method as in PMID 32560043; settings: cited from earlier work
[5] = 6 horas (first column so headed)
[6] = 6 horas (second, last column so headed)

COc1cccc2c1C(=O)c1c(O)c3c(c(O)c1C2=O)C[C@@](O)(C(C)=O)C[C@@H]3O[C@H]1C[C@H](N)[C@H](O)[C@H](C)O1 [Aunomycin]
Trypan. Activity (T. cruzi): +

O=C(Cn1ccnc1[N+](=O)[O-])NCc1ccccc1 [Benznidazole]
IC50 [1]: 130.6 ± 0.08 µM | IC50 [2]: 19.9 ± 0.23 µM | IC50 [3]: 156 ± 0.11 µM

O=C(O)c1ccccc1 [Benzoic acid]
Trypan. Activity (T. cruzi): ++

Cc1ccc(-c2cc(C(F)(F)F)nn2-c2ccc(S(N)(=O)=O)cc2)cc1 [Celecoxib]
IC50 [1]: > 100 µM | IC50 [2]: > 400 µM | IC50 [3]: > 100 µM | IC50 [4]: > 400 µM

CN(C)CCCC1(c2ccc(F)cc2)OCc2cc(C#N)ccc21 (centres unmarked) [Citalopram]
Trypan. Activity (T. cruzi): ++

Nc1nc(=O)c2nc(CNc3ccc(C(=O)N[C@@H](CCC(=O)O)C(=O)O)cc3)cnc2[nH]1 [Folic acid]
Parasitemia inhibition percentage over the time, 2 horas INC-5 (T. cruzi INC-5 strain): 100 | Parasitemia inhibition percentage over the time, 4 horas INC-5 (T. cruzi INC-5 strain): 50 | Parasitemia inhibition percentage over the time, 6 horas INC-5 (T. cruzi INC-5 strain; [5]): 33.3 | Parasitemia inhibition percentage over the time, 6 horas INC-5 (T. cruzi INC-5 strain; [6]): 33.3 | parasitemia inhibition (T. cruzi INC-5 strain): 66.7% | IC50 [1]: 21.5 ± 0.03 µM | Parasitemia inhibition percentage over the time, 2 horas Ninoa (T. cruzi Ninoa strain): 100 | Parasitemia inhibition percentage over the time, 4 horas Ninoa (T. cruzi Ninoa strain): 71 | Parasitemia inhibition percentage over the time, 6 horas Ninoa (T. cruzi Ninoa strain; [5]): 42.8 | Parasitemia inhibition percentage over the time, 6 horas Ninoa (T. cruzi Ninoa strain; [6]): 42.8 | parasitemia inhibition (T. cruzi Ninoa strain): 57.2% | IC50 [2]: > 400 µM | IC50 [3]: 28.1 ± 0.01 µM | IC50 [4]: > 400 µM

O=C(O)P(=O)(O)O [Foscarnet]
Trypan. Activity (T. cruzi): ++

Cc1cnc(C(=O)NCCc2ccc(S(=O)(=O)NC(=O)NC3CCCCC3)cc2)cn1 [Glipizide]
growth inhibitory activity on T. cruzi epimastigotes (T. cruzi epimastigotes): micromolar range

COc1ccc2c(c1)C(=O)N(CCc1ccc(S(=O)(=O)NC(=O)NC3CCCCC3)cc1)C(=O)C2(C)C [Gliquidone]
growth inhibitory activity on T. cruzi epimastigotes (T. cruzi epimastigotes): micromolar range

N[C@@H](CCC(=O)N[C@@H](CS)C(=O)NCC(=O)O)C(=O)O [Glutathione]
IC50 [1]: > 100 µM | IC50 [2]: > 400 µM | IC50 [3]: > 100 µM | IC50 [4]: > 400 µM

COc1ccc(Cl)cc1C(=O)NCCc1ccc(S(=O)(=O)NC(=O)NC2CCCCC2)cc1 [Glyburide]
growth inhibitory activity on T. cruzi epimastigotes (T. cruzi epimastigotes): micromolar range

CC1=C(/C=C/C(C)=C/C=C/C(C)=C\C(=O)O)C(C)(C)CCC1 [Isotretinoin]
Trypan. Activity (T. cruzi): ++

Nc1nc2c(c(=O)[nH]1)N(C=O)C(CNc1ccc(C(=O)N[C@@H](CCC(=O)O)C(=O)O)cc1)CN2 (some centres unmarked) [Leucovorin]
IC50 [1]: > 100 µM | IC50 [2]: > 400 µM | IC50 [3]: > 100 µM | IC50 [4]: > 400 µM

CC12CC3CC(C)(C1)CC(N)(C3)C2 [Memantine]
Trypan. Activity (T. cruzi): ++

CN(C)c1ccc(O)c2c1C[C@H]1C[C@H]3[C@H](N(C)C)C(O)=C(C(N)=O)C(=O)[C@@]3(O)C(O)=C1C2=O [Minocycline]
Trypan. Activity (T. cruzi): ++

COc1ccc2cc([C@H](C)C(=O)O)ccc2c1 [Naproxen]
Parasitemia inhibition percentage over the time, 2 horas INC-5 (T. cruzi INC-5 strain): 100 | Parasitemia inhibition percentage over the time, 4 horas INC-5 (T. cruzi INC-5 strain): 85.7 | Parasitemia inhibition percentage over the time, 6 horas INC-5 (T. cruzi INC-5 strain; [5]): 71.4 | Parasitemia inhibition percentage over the time, 6 horas INC-5 (T. cruzi INC-5 strain; [6]): 57.1 | parasitemia inhibition (T. cruzi INC-5 strain): 42.9% | IC50 [1]: 38.3 ± 0.06 µM | Parasitemia inhibition percentage over the time, 2 horas Ninoa (T. cruzi Ninoa strain): 100 | Parasitemia inhibition percentage over the time, 4 horas Ninoa (T. cruzi Ninoa strain): 71 | Parasitemia inhibition percentage over the time, 6 horas Ninoa (T. cruzi Ninoa strain; [5]): 28.5 | Parasitemia inhibition percentage over the time, 6 horas Ninoa (T. cruzi Ninoa strain; [6]): 14.2 | parasitemia inhibition (T. cruzi Ninoa strain): 85.8% | IC50 [2]: > 400 µM | IC50 [3]: 58.5 ± 0.07 µM | IC50 [4]: > 400 µM

NC(=O)c1cccnc1 [Nicotinamide]
Trypan. Activity (T. cruzi): ++

CC1CS(=O)(=O)CCN1/N=C/c1ccc([N+](=O)[O-])o1 (centres unmarked) [Nifurtimox]
Parasitemia inhibition percentage over the time, 2 horas INC-5 (T. cruzi INC-5 strain): 100 | Parasitemia inhibition percentage over the time, 4 horas INC-5 (T. cruzi INC-5 strain): 66.6 | Parasitemia inhibition percentage over the time, 6 horas INC-5 (T. cruzi INC-5 strain; [5]): 55.5 | Parasitemia inhibition percentage over the time, 6 horas INC-5 (T. cruzi INC-5 strain; [6]): 27.7 | parasitemia inhibition (T. cruzi INC-5 strain): 72.3% | IC50 [1]: 115.2 ± 0.17 µM | Parasitemia inhibition percentage over the time, 2 horas Ninoa (T. cruzi Ninoa strain): 100 | Parasitemia inhibition percentage over the time, 4 horas Ninoa (T. cruzi Ninoa strain): 50 | Parasitemia inhibition percentage over the time, 6 horas Ninoa (T. cruzi Ninoa strain; [5]): 27.0 | Parasitemia inhibition percentage over the time, 6 horas Ninoa (T. cruzi Ninoa strain; [6]): 22.2 | parasitemia inhibition (T. cruzi Ninoa strain): 77.8% | IC50 [2]: 6.47 ± 0.42 µM | IC50 [3]: 167.1 ± 0.03 µM | IC50 [4]: 7.09 ± 0.12 µM

Cc1cn(-c2cc(NC(=O)c3ccc(C)c(Nc4nccc(-c5cccnc5)n4)c3)cc(C(F)(F)F)c2)cn1 [Nilotinib]
growth inhibitory activity on T. cruzi epimastigotes (T. cruzi epimastigotes): micromolar range

CC(=O)O[C@H]1C(=O)[C@@]2(C)[C@H]([C@H](OC(=O)c3ccccc3)[C@]3(O)C[C@H](OC(=O)[C@H](O)[C@@H](NC(=O)c4ccccc4)c4ccccc4)C(C)=C1C3(C)C)[C@]1(OC(C)=O)CO[C@@H]1C[C@@H]2O [Paclitaxel]
Trypan. Activity (T. cruzi): ++

Nc1nc2[nH]cc(CCc3ccc(C(=O)N[C@@H](CCC(=O)O)C(=O)O)cc3)c2c(=O)[nH]1 [Pemetrexed]
Trypan. Activity (T. cruzi): +

CC(=O)CCCCn1c(=O)c2c(ncn2C)n(C)c1=O [Pentoxifylline]
Trypan. Activity (T. cruzi): + | IC50 [1]: > 100 µM | IC50 [2]: > 400 µM | IC50 [3]: > 100 µM | IC50 [4]: > 400 µM

CC(=O)[C@H]1CC[C@H]2[C@@H]3CCC4=CC(=O)CC[C@]4(C)[C@H]3CC[C@]12C [Progesterone]
Trypan. Activity (T. cruzi): +

C=C[C@H]1C[N@@]2CC[C@H]1C[C@H]2[C@H](O)c1ccnc2ccc(OC)cc12 [Quinine]
Trypan. Activity (T. cruzi): ++

CC(N)C12CC3CC(CC(C3)C1)C2 (centres unmarked) [Rimantadine]
Trypan. Activity (T. cruzi): ++

CC(C)(C)NC(=O)[C@@H]1C[C@@H]2CCCC[C@@H]2CN1C[C@@H](O)[C@H](Cc1ccccc1)NC(=O)[C@H](CC(N)=O)NC(=O)c1ccc2ccccc2n1 [Saquinavir]
Trypan. Activity (T. cruzi): ++

Cn1c(=O)c2[nH]cnc2n(C)c1=O [Theophylline]
IC50 [1]: > 100 µM | IC50 [2]: > 400 µM | IC50 [3]: > 100 µM | IC50 [4]: > 400 µM

CSc1ccc2c(c1)N(CCC1CCCCN1C)c1ccccc1S2 (centres unmarked) [Thioridazine]
Trypan. Activity (T. cruzi): ++

Nc1nc2nc[nH]c2c(=S)[nH]1 [Tioguanine]
Trypan. Activity (T. cruzi): ++

Nc1nc(N)c2nc(-c3ccccc3)c(N)nc2n1 [Triamterene]
Trypan. Activity (T. cruzi): ++

COc1cc(Cc2cnc(N)nc2N)cc(OC)c1OC [Trimethoprim]
Trypan. Activity (T. cruzi): ++

CC(=O)N[C@H]1[C@H]([C@H](O)[C@H](O)CO)OC(C(=O)O)=C[C@@H]1N=C(N)N [Zanamivir]
Trypan. Activity (T. cruzi): ++

— publication PMC7699892, “Repositioned Drugs for Chagas Disease Unveiled via Structure-Based Drug Repositioning” (International Journal of Molecular Sciences, 2020)
